#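 Values below derive from 48-hour exposures of cells grown in 96-well plates, with endpoints linearly interpolated between the two concentrations bracketing the appropriate inhibition level. The concentration for 50% growth inhibition is given as GI50. TGI: concentration producing complete growth inhibition.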
# Key:
# Test in all cases: DTP human tumour cell line panel, 48 h
# RXF 393 renal = system: RXF 393 renal
# NCI-H460 lung = system: NCI-H460 lung
# CCRF-CEM leukemia = system: CCRF-CEM leukemia
# HCT-15 colon = system: HCT-15 colon
# K-562 leukemia = system: K-562 leukemia
# NCI-H522 lung = system: NCI-H522 lung
# UO-31 renal = system: UO-31 renal
# COLO 205 colon = system: COLO 205 colon
# SNB-19 CNS = system: SNB-19 CNS
# SN12C renal = system: SN12C renal
# MALME-3M melanoma = system: MALME-3M melanoma
# HCT-116 colon = system: HCT-116 colon
# MDA-MB-435 = system: MDA-MB-435
# UACC-257 melanoma = system: UACC-257 melanoma
# SK-OV-3 ovarian = system: SK-OV-3 ovarian
# MDA-MB-231 breast = system: MDA-MB-231 breast
# UACC-62 melanoma = system: UACC-62 melanoma
# NCI-H23 lung = system: NCI-H23 lung
# U251 CNS = system: U251 CNS
# M14 melanoma = system: M14 melanoma
# TK-10 renal = system: TK-10 renal
# OVCAR-4 ovarian = system: OVCAR-4 ovarian
# SF-539 CNS = system: SF-539 CNS
# KM12 colon = system: KM12 colon
# OVCAR-8 ovarian = system: OVCAR-8 ovarian
# NCI/ADR-RES ovarian = system: NCI/ADR-RES ovarian
# OVCAR-3 ovarian = system: OVCAR-3 ovarian
# LOX IMVI melanoma = system: LOX IMVI melanoma
# A549 NSCLC = system: A549 NSCLC
# SF-268 CNS = system: SF-268 CNS
# T-47D breast = system: T-47D breast
# HL-60(TB) leukemia = system: HL-60(TB) leukemia
# OVCAR-5 ovarian = system: OVCAR-5 ovarian
# A498 renal = system: A498 renal
# 786-0 renal = system: 786-0 renal
# CAKI-1 renal = system: CAKI-1 renal
# SW-620 colon = system: SW-620 colon
# SF-295 CNS = system: SF-295 CNS
# SK-MEL-28 melanoma = system: SK-MEL-28 melanoma
# NCI-H226 lung = system: NCI-H226 lung
# IGROV1 ovarian = system: IGROV1 ovarian
# PC-3 prostate = system: PC-3 prostate
# HS 578T breast = system: HS 578T breast
# MOLT-4 leukemia = system: MOLT-4 leukemia
# DU-145 prostate = system: DU-145 prostate
# MCF7 breast = system: MCF7 breast
# HOP-62 NSCLC = system: HOP-62 NSCLC
# EKVX NSCLC = system: EKVX NSCLC
# SK-MEL-5 melanoma = system: SK-MEL-5 melanoma
# SR leukemia = system: SR leukemia
# HCC-2998 colon = system: HCC-2998 colon
# ACHN renal = system: ACHN renal
# SNB-75 CNS = system: SNB-75 CNS
compound,measurement,setting,value
CCOc1ccc2nc(S/C(=C/C=C(C#N)C#N)c3ccc(Cl)cc3)sc2c1,GI50,RXF 393 renal,5.3 µM
same,TGI,RXF 393 renal,23.5 µM
same,GI50,NCI-H460 lung,7.49 µM
same,TGI,NCI-H460 lung,25 µM
same,GI50,CCRF-CEM leukemia,0.57 µM
same,TGI,CCRF-CEM leukemia,3.19 µM
same,GI50,HCT-15 colon,2.42 µM
same,TGI,HCT-15 colon,8.81 µM
same,GI50,K-562 leukemia,3.43 µM
same,TGI,K-562 leukemia,18.3 µM
same,GI50,NCI-H522 lung,4.43 µM
same,TGI,NCI-H522 lung,15.2 µM
same,GI50,UO-31 renal,8.08 µM
same,TGI,UO-31 renal,27 µM
same,GI50,COLO 205 colon,3.26 µM
same,TGI,COLO 205 colon,11 µM
same,GI50,SNB-19 CNS,6.72 µM
same,TGI,SNB-19 CNS,24.5 µM
same,GI50,SN12C renal,2.86 µM
same,TGI,SN12C renal,8.18 µM
same,GI50,MALME-3M melanoma,3.52 µM
same,TGI,MALME-3M melanoma,21.9 µM
same,GI50,HCT-116 colon,0.937 µM
same,TGI,HCT-116 colon,2.6 µM
same,GI50,MDA-MB-435,3.18 µM
same,TGI,MDA-MB-435,9.84 µM
same,GI50,UACC-257 melanoma,9.1 µM
same,TGI,UACC-257 melanoma,22.1 µM
same,GI50,SK-OV-3 ovarian,4.34 µM
same,TGI,SK-OV-3 ovarian,15.3 µM
same,GI50,MDA-MB-231 breast,1.91 µM
same,TGI,MDA-MB-231 breast,5.08 µM
same,GI50,UACC-62 melanoma,3.21 µM
same,TGI,UACC-62 melanoma,12.5 µM
same,GI50,NCI-H23 lung,3.1 µM
same,TGI,NCI-H23 lung,10.1 µM
same,GI50,U251 CNS,0.628 µM
same,TGI,U251 CNS,4.29 µM
same,GI50,M14 melanoma,2.13 µM
same,TGI,M14 melanoma,4.61 µM
same,GI50,TK-10 renal,2.91 µM
same,TGI,TK-10 renal,9.83 µM
same,GI50,OVCAR-4 ovarian,12.4 µM
same,TGI,OVCAR-4 ovarian,43.8 µM
same,GI50,SF-539 CNS,3.6 µM
same,TGI,SF-539 CNS,9.24 µM
same,GI50,KM12 colon,3.84 µM
same,TGI,KM12 colon,15.2 µM
same,GI50,OVCAR-8 ovarian,3.48 µM
same,TGI,OVCAR-8 ovarian,10.3 µM
same,GI50,NCI/ADR-RES ovarian,2.32 µM
same,TGI,NCI/ADR-RES ovarian,5.19 µM
same,GI50,OVCAR-3 ovarian,2.99 µM
same,TGI,OVCAR-3 ovarian,10.9 µM
same,GI50,LOX IMVI melanoma,0.546 µM
same,TGI,LOX IMVI melanoma,2.03 µM
same,GI50,A549 NSCLC,16.4 µM
same,TGI,A549 NSCLC,33.2 µM
same,GI50,SF-268 CNS,4.63 µM
same,TGI,SF-268 CNS,19 µM
same,GI50,T-47D breast,3.91 µM
same,TGI,T-47D breast,17.4 µM
same,GI50,HL-60(TB) leukemia,3.08 µM
same,TGI,HL-60(TB) leukemia,34.3 µM
same,GI50,OVCAR-5 ovarian,15.2 µM
same,TGI,OVCAR-5 ovarian,28.5 µM
same,GI50,A498 renal,2.46 µM
same,TGI,A498 renal,8.6 µM
same,GI50,786-0 renal,1.95 µM
same,TGI,786-0 renal,4.37 µM
same,GI50,CAKI-1 renal,4.34 µM
same,TGI,CAKI-1 renal,15.3 µM
same,GI50,SW-620 colon,0.631 µM
same,TGI,SW-620 colon,2.92 µM
same,GI50,SF-295 CNS,9.85 µM
same,TGI,SF-295 CNS,28.3 µM
same,GI50,SK-MEL-28 melanoma,3.81 µM
same,TGI,SK-MEL-28 melanoma,15.9 µM
same,GI50,NCI-H226 lung,3.63 µM
same,TGI,NCI-H226 lung,13.2 µM
same,GI50,IGROV1 ovarian,3.57 µM
same,TGI,IGROV1 ovarian,13 µM
same,GI50,PC-3 prostate,4.16 µM
same,TGI,PC-3 prostate,11.8 µM
same,GI50,HS 578T breast,4.22 µM
same,TGI,HS 578T breast,16.8 µM
same,GI50,MOLT-4 leukemia,1.65 µM
same,TGI,MOLT-4 leukemia,> 100 µM
same,GI50,DU-145 prostate,3.51 µM
same,TGI,DU-145 prostate,10.7 µM
same,GI50,MCF7 breast,6.56 µM
same,TGI,MCF7 breast,26.7 µM
same,GI50,HOP-62 NSCLC,4.08 µM
same,TGI,HOP-62 NSCLC,13.2 µM
same,GI50,EKVX NSCLC,12.9 µM
same,TGI,EKVX NSCLC,28.9 µM
same,GI50,SK-MEL-5 melanoma,1.76 µM
same,TGI,SK-MEL-5 melanoma,3.86 µM
same,GI50,SR leukemia,1.96 µM
same,TGI,SR leukemia,7.8 µM
Oc1c(C(O)c2ccccn2)ccc2ccccc12 (stereo unspecified),TGI,RXF 393 renal,> 100 µM
same,TGI,CCRF-CEM leukemia,> 100 µM
same,TGI,HCT-15 colon,97 µM
same,TGI,K-562 leukemia,> 100 µM
same,TGI,NCI-H522 lung,74.1 µM
same,TGI,UO-31 renal,> 100 µM
same,TGI,SNB-19 CNS,> 100 µM
same,TGI,SN12C renal,> 100 µM
same,TGI,HCC-2998 colon,59.4 µM
same,TGI,HCT-116 colon,> 100 µM
same,TGI,UACC-257 melanoma,> 100 µM
same,TGI,UACC-62 melanoma,46.1 µM
same,TGI,NCI-H23 lung,> 100 µM
same,TGI,U251 CNS,> 100 µM
same,TGI,M14 melanoma,> 100 µM
same,TGI,SF-539 CNS,> 100 µM
same,TGI,KM12 colon,> 100 µM
same,TGI,OVCAR-8 ovarian,> 100 µM
same,TGI,NCI/ADR-RES ovarian,> 100 µM
same,TGI,OVCAR-3 ovarian,> 100 µM
same,TGI,LOX IMVI melanoma,> 100 µM
same,TGI,A549 NSCLC,> 100 µM
same,TGI,SF-268 CNS,> 100 µM
same,TGI,ACHN renal,> 100 µM
same,TGI,T-47D breast,> 100 µM
same,TGI,HL-60(TB) leukemia,42.1 µM
same,TGI,SF-295 CNS,> 100 µM
same,TGI,NCI-H226 lung,> 100 µM
same,TGI,PC-3 prostate,> 100 µM
same,TGI,HS 578T breast,> 100 µM
same,TGI,MOLT-4 leukemia,> 100 µM
same,TGI,DU-145 prostate,> 100 µM
same,TGI,HOP-62 NSCLC,> 100 µM
same,TGI,EKVX NSCLC,> 100 µM
same,TGI,SNB-75 CNS,> 100 µM
same,TGI,SK-MEL-5 melanoma,> 100 µM

# Reference: PubChem BioAssay (NCI)
